Entries after “also recorded” stand apart in the source; their conditions may differ.
Experiments:
perceived salt intensity = assay: Senomyx human taste experiments, perceived salt intensity; format: in vivo
[1] = system: intensity of sodium chloride; conditions: humans; concentrations that specifically inhibit ENaC function; cited from earlier work

Row | SMILES | effect on perceived salt intensity (perceived salt intensity; tested at levels 300-fold above IC50 values in oocytes) | reduction of the intensity of sodium chloride [1] | effect on perceived salt intensity (perceived salt intensity; tested at levels 3000-fold (printed: for benzamil) above IC50 values in oocytes) | effect on perceived salt intensity (perceived salt intensity; tested at levels 3000-fold (printed: for benzamil) above IC50 values in oocytes, listed as phenomil)
1 | N=C(N)NC(=O)c1nc(Cl)c(N)nc1N [amiloride] | did not exhibit a significant effect; also recorded: did not demonstrate a significant effect | 15-20% |  | 
2 | NC(=Nc1ccccc1)NC(=O)c1nc(Cl)c(N)nc1N [phenamil] |  |  | did not demonstrate a significant effect | did not exhibit a significant effect
